Consider eight molecules from US20090286738A1, “Gene Regulation” (ST. GEORGE'S ENTERPRISES LIMITED, priority 2005, published 2009).

The test system of series [1] is SK-OV3 (Human ovarian cancer). Format: cell-based. The text has this: (§1) FIG. 5(a): MTT assays to determine the IC50 of the control and hexapeptide-containing peptides.
(§2) These include prostate (Miller, G. J. et al. Cancer Res. 63, 5879-5888 (2003)), renal (Cillo, C. et al. Int. J. Cancer. 51, 892-897 (1992)), bladder (Cantile, M., et al. Oncogene 22, 6462-6468 (2003)), lung (Abe, M. et al. Oncol. Rep. 15, 797-802 (2006)) and ovarian (Cheng, W., et al. Nat. Med. 11, 531-537 (2005)) cancer. In order to determine whether HXArg9 could also block the growth of cells derived from these cancers, we obtained the IC50 using an MTT assay for representative cell lines of each (Table 1).

Series [2] has as its system B16F10 (Mouse melanoma). The class given is cell-based.
Source text: as §1, §2

Series [3] concerns A549 (Human non-small cell lung carcinoma). The class given is cell-based.
Source text: as §1, §2

In series [4] the test system is LNCaP (Human prostate cancer). The class given is cell-based.
Source text: as §1, §2

Series [5] relates to A498 (Human renal cancer). Format: cell-based.
Source text: as §1, §2

For series [6], the system named is J82 (Human bladder cancer). The class given is cell-based.
Source text: as §1, §2

Series [7] in a line: Stability of peptides in human plasma at 37° C., SDS-PAGE. The class given is in vitro ADME. As to conditions: 1 mM peptide. How it is done:
Peptides were incubated in human serum for the times shown and then visualised on a Coomassie brilliant blue stained gel. The arrow heads indicate the position of intact peptide. Standard=peptide only in this lane as a marker.
The stability of HXArg9(2D) and CX2Arg9(2D) was assessed by incubation each with human plasma at 37° C. and the amount of peptide remaining after different amounts of time was assessed by SDS-PAGE. Each peptide was added to freshly prepared human plasma to a final concentration of 1 mM in a total volume of 40 μl. Samples were incubated at 37° C. and reactions were stopped by adding 60 μl of water and 0.9 ml of protein gel loading buffer (BioRad, USA) containing 1% 2-mercaptoethanol, and heating to 95° C. for four minutes. 2 μl of each sample was run on a 22% acrylamide gel. […] This compared with a half life of approximately 40 minutes for the L isomer form HXArg9.

The test system of series [8] is malignant cell lines (B16 mouse melanoma, LNCAP human prostate cancer, K562). Description: Activity of peptides on different malignant cell lines, living and dead cells after 3 hours (FIGS. 6 to 8). The class given is cell-based. Particulars: for effect on living/dead cells, cell proliferation: 60 μM or 6 μM, 3 hour exposures, melanoma, prostate cancer and leukaemia cells. The protocol:
(§3) The peptides as indicated were applied to the cells at a concentration of 60 μM (FIG. 6A) or 6 μM (FIG. 6B). In both experiments the HXArg9, CX1Arg9 and CX2Arg9 peptides used were the (2D) variant peptides in which the N- and C-terminal amino acids are in the D conformation and all remaining amino acids are in the L conformation. The number of living and dead cells were assessed after 3 hours. Black bars=% or number of cells dead. White bars=% or number of cells alive.
The peptides as indicated were applied to the cells at a concentration of 60 μM (FIG. 7A) or 6 μM (FIG. 7B). In both experiments the HXArg9, CX1Arg9 and CX2Arg9 peptides used were the (2D) variant peptides in which the N- and C-terminal amino acids are in the D conformation and all remaining amino acids are in the L conformation. The number of living and dead cells were assessed after 3 hours. Black bars=% or number of cells dead. White bars=% or number of cells alive.
as §3, with “μM. HXArg9(2D) is” for “μM (FIG. 6A) or 6 μM (FIG. 6B). In both experiments”, “variant form of HXArg9 in which the N-terminal and C-terminal amino acids are in the D conformation and the remaining amino acids are in the L conformation. HXArg9 consists of only L-conformation amino acids. The” for “HXArg9,”, “bars=%” for “bars=% or number of”
(§4) Cell lines were seeded at 4×10^4 cells/ml in liquid culture system made of RPMI-1640 medium (Life Technologies, UK) supplemented with Foetal Calf Serum (10% Sigma Aldrich) and penicillin/streptomycin (1%, Sigma) and at least in duplicate. When required the test peptide was added to the medium. Cell lines were cultured for up to 7 days at 37° C., 5% CO2 in humidified atmosphere. Cultured cells were then assessed for cell viability/enumeration using trypan blue exclusion (Sigma Aldrich).
The activity of the peptides described above was tested on a number of different malignant cell lines using a similar assay to that described previously.

The subject of series [9] is B16 cells. As to the kind of experiment: Apoptosis of B16 cells (microscopy, Hoechst, Annexin V FACS). Format: cell-based, murine. As to conditions: in combination with HXArg9(2D). The protocol: FIG. 5(b): Light micrographs of B16 cells treated with 60 μM HXArg9(2D) (HXR9) or CX2Arg9(2D) (CXR9) for two hours. Scale bar=40 μm.
FIG. 5(c) Transmission electron micrographs of B16 cells treated with 60 μM HXR9 or CXR9 for two hours. Scale bar=[…].
FIG. 5(d) FACS sorting of B16 cells with Annexin. Cells were treated as indicated above each plot. The lower left hand quadrant represents normal, viable cells. The bottom and top right hand quadrants represent cells in early and late apoptosis, respectively, and the top left hand quadrant represents cells in necrosis.
Apoptotic morphology was determined using scanning electron microscopy and fluorescence microscopy. Changes in nuclear morphology were assessed by fixing B-16 cytospins with ice-cold methanol at room temperature for five minutes. The fixed cells were stained with Hoechst 33258 (2 μg/ml) (Sigma) and mounted using VECTASHIELD® mounting medium (Vector) and analyzed by fluorescence microscopy (Nikon Eclipse TE 2000-S).
An additional sign of apoptosis is the appearance of phosphatidylserine in the cell membrane (Koopman, G. et al. Blood 84, 1415-1420 (1994)). This can be detected by fluorescencently labeled Annexin V protein and cell sorting using FACS.
This is a specific inhibitor of the caspase proteases, which are key components of the apotopic pathway (Zhu, H., et al. FEBS Lett. 374, 303-308 (1995)).

For series [10], the system named is B16 murine melanoma cells. As to the kind of experiment: Living and dead B16 cells after 3 hours (FIGS. 2A, 9). Format: cell-based. Particulars: B16 cells, FIGS. 2 and 3. How it is done:
In FIG. 2A the peptides as indicated were applied to the cells at a concentration of 60 μM. The number of living and dead cells were assessed after 3 hours. Black bars=number of cells dead. White bars=number of cells alive.
as §3
The HXArg9 peptide used was the (2D) variant peptide in which the N- and C-terminal amino acids are in the D conformation and all remaining amino acids are in the L conformation. HXArg9 was applied to the cells at a variety of concentrations (μM), and the number of dead and living cells was assessed after 3 hours. Black bars=% cells dead. White bars=% cells alive.
as §4

The test system of series [11] is B16 murine melanoma cells. As to the kind of experiment: B16 cell growth over a 4 day period (FIGS. 2B, 3). The class given is cell-based. Particulars: 200 μg/ml for 4 hours, counted day 4. The protocol: In FIG. 2B the peptides as indicated were applied to the cells at a concentration of 200 μg/ml for 4 hours. The number of cells present was assessed on the day of treatment (white bars) and on day 4 (diagonal stripes).
A=untreated; B=CXP4; C=HXP4; D=HXP4(3D)2; E=HXP4(3D)3; F=HXP4(3D)4.
as §4

Series [12] concerns malignant cell lines (B16 mouse melanoma, LNCAP human prostate cancer, K562). Particulars: time scale in which HXP4 shows an effect; cited from earlier work.

“Also recorded” adds a separate entry of the source.

For orientation: IC50 means the point on the concentration scale where inhibition reaches its midpoint. The low end stands for higher potency, the high end for lower potency. As usually defined, the half-life is the time in which the quantity being followed falls by half. `CSCC[C@@H](N)C(=O)N[C@@H](CS)C(=O)N[C@@H](C)C(=O)N[C@@H](C)C(=O)NCC(=O)N[C@@H](CC(=O)O)C(=O)N[C@@H](CC(=O)O)C(=O)N[C@@H](C)C(=O)N[C@@H](CC(C)C)C(=O)N[C@@H](CCCNC(=N)N)C(=O)N[C@@H](CCCNC(=N)N)C(=O)N[C@@H](CCCNC(=N)N)C(=O)N[C@@H](CCCNC(=N)N)C(=O)N[C@@H](CCCNC(=N)N)C(=O)N[C@@H](CCCNC(=N)N)C(=O)N[C@@H](CCCNC(=N)N)C(=O)N[C@@H](CCCNC(=N)N)C(=O)N[C@H](CCCNC(=N)N)C(=O)O` [CX2Arg9(2D), MCAAGDDALRRRRRRRRR, reference compound]: the IC50 in [1] is 270 µM; in series [2], 200 µM; in [3], 240 µM; in [4], 220 µM; in series [5], 280 µM; in [6], 290 µM. Moreover, the half-life at 1 mM in series [7] was about 12 h.
“MCAAGDDALRRRRRRRRR [CX2Arg9, more extensively changed version of the control peptide CX1Arg9, reference compound]”: the “effect on living/dead cells, cell proliferation” value (“effect on living/dead cells” for short) in series [8] is listed as “no effect on cell proliferation”.
Turning to Z-VAD, in series [9], the “cell death / apoptosis on co-treatment with HXArg9(2D)” value is on record as “significant reduction in cell death; also recorded: significant reduction in the number of cells undergoing apoptosis”.
As for WYPWMKKHHRQIKIWFQNRRMKWKK [HXP4(3D)1], in series [10], the “activity of D-isomer variants of HXP4” value is “slightly higher activity than the other 3D isomers”.
As for “WCPWLDRHGRRRRRRRRR [CX1Arg9, control peptide based on HXArg9 with amino acid substitutions]”, the “effect on living/dead cells” value in series [8] is “some activity”.
Take WYPWMKKHHRQIKIWFQNRRMKWKK [HXP4]: in [8], the “effect on living/dead cells” value was “no effect”. The “time required to achieve the same response” value in series [8] (compared with 3 hour exposures for HXArg9) came to 4 days. For the same molecule, the “cell growth over a 4 day period” value in [11] is “significantly reduced cell growth”.
For the molecule WCPWLDRHGRQIKIWFQNRRMKWKK [CXP4], the “effect in a similar assay, previously shown” value in series [12] was “ineffective”.
For the molecule `CSCC[C@H](NC(=O)[C@H](Cc1c[nH]c2ccccc12)NC(=O)[C@@H]1CCCN1C(=O)[C@H](Cc1ccc(O)cc1)NC(=O)[C@H](N)Cc1c[nH]c2ccccc12)C(=O)N[C@@H](CCCCN)C(=O)N[C@@H](CCCCN)C(=O)N[C@@H](Cc1c[nH]cn1)C(=O)N[C@@H](Cc1c[nH]cn1)C(=O)N[C@@H](CCCNC(=N)N)C(=O)N[C@@H](CCCNC(=N)N)C(=O)N[C@@H](CCCNC(=N)N)C(=O)N[C@@H](CCCNC(=N)N)C(=O)N[C@@H](CCCNC(=N)N)C(=O)N[C@@H](CCCNC(=N)N)C(=O)N[C@@H](CCCNC(=N)N)C(=O)N[C@@H](CCCNC(=N)N)C(=O)N[C@H](CCCNC(=N)N)C(=O)O` [HXArg9(2D), WYPWMKKHHRRRRRRRRR], the IC50 in series [1] was 22 µM; in series [2], 20 µM; in series [3] it was 19 µM; in series [4] it was 21 µM; in [5], 24 µM; in series [6], 22 µM. In [7], this molecule showed a half-life at 1 mM of about 12 h.
